Data published in patent publication US20160122320A1, “USEFUL COMBINATIONS OF MONOBACTAM ANTIBIOTICS WITH BETA-LACTAMASE INHIBITORS” (Basilea Pharmaceutica AG, priority 2005, published 2016).
Where a name gives a salt, the structure may show the parent alone.

Experiments:
Assay in all cases: MIC, NCCLS broth microdilution
Format in all cases: cell-based
[1] = test system: Stenotrophomonas malthophilia 1AC736; details: for MIC of antibiotic at fixed inhibitor concentration (4 mg/L): Stenotrophomonas malthophilia 1AC736, MIC of antibiotic compound 1 with the labelled bridged monobactam of formula II and clavulanate, 4 mg/L each
[2] = test system: Klebsiella pneumoniae CF104; details: for MIC of antibiotic at fixed inhibitor concentration (4 mg/L): MIC of antibiotic compound 1 with the labelled bridged monobactam of formula II and clavulanate, 4 mg/L each
Serratia marcescens S6 = details: for MIC of antibiotic at fixed inhibitor concentration (4 mg/L): MIC of antibiotic compound 1 with the labelled bridged monobactam of formula II and clavulanate, 4 mg/L each
[3] = test system: Pseudomonas aeruginosa 1973E; details: for MIC of antibiotic at fixed inhibitor concentration (4 mg/L): MIC of antibiotic compound 1 with the labelled bridged monobactam of formula II and clavulanate, 4 mg/L each
Description: Antimicrobial activity of the compounds and of their combinations was determined against a selection of organisms according to the standard procedures described by the National Committee for Clinical Laboratory Standards (National Committee for Clinical Laboratory. Standards (2000). Methods for Dilution Antimicrobial Susceptibility Tests for Bacteria That Grow Aerobically-Fifth Edition: Approved Standard M7-A5. NCCLS, Wayne, Pa., USA).
In all cases the final concentration of DMSO incubated with the bacteria is less than or equal to 1%. […] Plates were incubated overnight at an appropriate temperature (30° C. or 37° C.) and optical densities assessed by eye. The MIC value is defined as the lowest compound concentration completely inhibiting visible growth of the test organism. When combinations between compounds of formula I with compounds of formula II and are evaluated the compounds of formula I are tested in dilution series as described above while the compounds of formula II and III-XIII were present in all wells at a constant concentration of 4 μg/mL each.

[4] = test system: Pseudomonas aeruginosa MK1184; details: for MIC of antibiotic at fixed inhibitor concentration (4 mg/L): MIC of antibiotic compound 1 with the labelled bridged monobactam of formula II and clavulanate, 4 mg/L each
Acinetobacter sp. J2 = details: for MIC of antibiotic at fixed inhibitor concentration (4 mg/L): Acinetobacter sp. J2, MIC of antibiotic compound 1 with the labelled bridged monobactam of formula II and clavulanate, 4 mg/L each
Enterobacter cloacae P99 = details: for MIC of antibiotic at fixed inhibitor concentration (4 mg/L): MIC of antibiotic compound 1 with the labelled bridged monobactam of formula II and clavulanate, 4 mg/L each

## C[C@H]1[C@H](NC(=O)/C(=N\OCc2cc(=O)c(O)cn2O)c2nc(N)sc2Cl)C(=O)N1OS(=O)(=O)O [Compound 29, (3S,4S)-3-{(2Z)-2-(2-amino-5-chloro(1,3-thiazol-4-yl))-3-[(1,5-dihydroxy-4-oxo(2-hydropyridyl))methoxy]-3-azaprop-2-enoylamino}-4-methyl-2-oxoazetidinyl hydroxysulfonate]
[1]; Stenotrophomonas maltophilia 1AC736, antibiotic alone, no inhibitor
  MIC of antibiotic: 1 µg/mL
[1]; Stenotrophomonas maltophilia 1AC736, with 102 and clavulanate
  MIC of antibiotic at fixed inhibitor concentration of 4 mg/L: 0.5 µg/mL
[1]; Stenotrophomonas maltophilia 1AC736, with 102 and sulbactam
  MIC of antibiotic at fixed inhibitor concentration of 4 mg/L: 1 µg/mL
[1]; Stenotrophomonas maltophilia 1AC736, with 323 and sulbactam
  MIC of antibiotic at fixed inhibitor concentration of 4 mg/L: 1 µg/mL
[2]; antibiotic alone, no inhibitor
  MIC of antibiotic: >32 µg/mL
[2]; with 102 and clavulanate
  MIC of antibiotic at fixed inhibitor concentration of 4 mg/L: 0.5 µg/mL
[2]; with 102 and sulbactam
  MIC of antibiotic at fixed inhibitor concentration of 4 mg/L: 2 µg/mL
[2]; with 323 and sulbactam
  MIC of antibiotic at fixed inhibitor concentration of 4 mg/L: 2 µg/mL
Serratia marcescens S6; antibiotic alone, no inhibitor
  MIC of antibiotic: 32 µg/mL
Serratia marcescens S6; with 102 and clavulanate
  MIC of antibiotic at fixed inhibitor concentration of 4 mg/L: 1 µg/mL
Serratia marcescens S6; with 102 and sulbactam
  MIC of antibiotic at fixed inhibitor concentration of 4 mg/L: 8 µg/mL
Serratia marcescens S6; with 323 and sulbactam
  MIC of antibiotic at fixed inhibitor concentration of 4 mg/L: 8 µg/mL
[3]; antibiotic alone, no inhibitor
  MIC of antibiotic: 4 µg/mL
[3]; with 102 and clavulanate
  MIC of antibiotic at fixed inhibitor concentration of 4 mg/L: 8 µg/mL
[3]; with 102 and sulbactam
  MIC of antibiotic at fixed inhibitor concentration of 4 mg/L: 8 µg/mL
[3]; with 323 and sulbactam
  MIC of antibiotic at fixed inhibitor concentration of 4 mg/L: 8 µg/mL
[4]; antibiotic alone, no inhibitor
  MIC of antibiotic: >32 µg/mL
[4]; with 102 and clavulanate
  MIC of antibiotic at fixed inhibitor concentration of 4 mg/L: 8 µg/mL
[4]; with 102 and sulbactam
  MIC of antibiotic at fixed inhibitor concentration of 4 mg/L: 4 µg/mL
[4]; with 323 and sulbactam
  MIC of antibiotic at fixed inhibitor concentration of 4 mg/L: 8 µg/mL
Acinetobacter sp. J2; Acinetobacter baumannii J2, antibiotic alone, no inhibitor
  MIC of antibiotic: >32 µg/mL
Acinetobacter sp. J2; Acinetobacter baumannii J2, with 102 and clavulanate
  MIC of antibiotic at fixed inhibitor concentration of 4 mg/L: >32 µg/mL
Acinetobacter sp. J2; Acinetobacter baumannii J2, with 102 and sulbactam
  MIC of antibiotic at fixed inhibitor concentration of 4 mg/L: 2 µg/mL
Acinetobacter sp. J2; Acinetobacter baumannii J2, with 323 and sulbactam
  MIC of antibiotic at fixed inhibitor concentration of 4 mg/L: 2 µg/mL
Enterobacter cloacae P99; antibiotic alone, no inhibitor
  MIC of antibiotic: >32 µg/mL
Enterobacter cloacae P99; with 102 and clavulanate
  MIC of antibiotic at fixed inhibitor concentration of 4 mg/L: 0.25 µg/mL
Enterobacter cloacae P99; with 102 and sulbactam
  MIC of antibiotic at fixed inhibitor concentration of 4 mg/L: 8 µg/mL
Enterobacter cloacae P99; with 323 and sulbactam
  MIC of antibiotic at fixed inhibitor concentration of 4 mg/L: 8 µg/mL

## O=C(Nc1ccc(O)cc1)N1CC[C@@H]2[C@H]1C(=O)N2S(=O)(=O)[O-].[Na+] [Compound 316]
[1]
  MIC of antibiotic at fixed inhibitor concentration (4 mg/L): 0.125 µg/mL
[2]
  MIC of antibiotic at fixed inhibitor concentration (4 mg/L): 0.5 µg/mL
Serratia marcescens S6
  MIC of antibiotic at fixed inhibitor concentration (4 mg/L): 0.25 µg/mL
[3]
  MIC of antibiotic at fixed inhibitor concentration (4 mg/L): 4 µg/mL
[4]
  MIC of antibiotic at fixed inhibitor concentration (4 mg/L): 32 µg/mL
Acinetobacter sp. J2
  MIC of antibiotic at fixed inhibitor concentration (4 mg/L): 16 µg/mL
Enterobacter cloacae P99
  MIC of antibiotic at fixed inhibitor concentration (4 mg/L): 8 µg/mL

## CN(C)c1cc[n+](CC(=O)N2CC[C@@H]3[C@H]2C(=O)N3S(=O)(=O)[O-])cc1 [Compound 112, (1S,5R)-2-{2-[4-(dimethylamino)pyridinium]acetyl}-7-oxo-2,6-diazabicyclo[3.2.0]heptane-6-sulfonate, inner salt]
[1]
  MIC of antibiotic at fixed inhibitor concentration (4 mg/L): 0.125 µg/mL
[2]
  MIC of antibiotic at fixed inhibitor concentration (4 mg/L): <=0.06 mg/L
Serratia marcescens S6
  MIC of antibiotic at fixed inhibitor concentration (4 mg/L): 0.5 µg/mL
[3]
  MIC of antibiotic at fixed inhibitor concentration (4 mg/L): 8 µg/mL
[4]
  MIC of antibiotic at fixed inhibitor concentration (4 mg/L): >32 µg/mL
Acinetobacter sp. J2
  MIC of antibiotic at fixed inhibitor concentration (4 mg/L): 16 µg/mL
Enterobacter cloacae P99
  MIC of antibiotic at fixed inhibitor concentration (4 mg/L): >32 µg/mL

## COc1cc(CNC(=O)N2CC[C@@H]3[C@H]2C(=O)N3S(=O)(=O)[O-])on1.[Na+] [Compound 313]
[1]
  MIC of antibiotic at fixed inhibitor concentration (4 mg/L): 0.125 µg/mL
[2]
  MIC of antibiotic at fixed inhibitor concentration (4 mg/L): 0.5 µg/mL
Serratia marcescens S6
  MIC of antibiotic at fixed inhibitor concentration (4 mg/L): 0.25 µg/mL
[3]
  MIC of antibiotic at fixed inhibitor concentration (4 mg/L): 4 µg/mL
[4]
  MIC of antibiotic at fixed inhibitor concentration (4 mg/L): >32 µg/mL
Acinetobacter sp. J2
  MIC of antibiotic at fixed inhibitor concentration (4 mg/L): 4 µg/mL
Enterobacter cloacae P99
  MIC of antibiotic at fixed inhibitor concentration (4 mg/L): 16 µg/mL

## O=C(N[C@H]1CCNC1)c1ccc[n+](CC(=O)N2CC[C@@H]3[C@H]2C(=O)N3S(=O)(=O)[O-])c1 [Compound 122, 2-(2-{3-[N-((3S)pyrrolidin-3-yl)carbamoyl]pyridinium}acetyl)(1S,5R)-7-oxo-2,6-diazabicyclo[3.2.0]heptane-6-sulfonate, inner salt]
[1]
  MIC of antibiotic at fixed inhibitor concentration (4 mg/L): 0.125 µg/mL
[2]
  MIC of antibiotic at fixed inhibitor concentration (4 mg/L): 0.125 µg/mL
Serratia marcescens S6
  MIC of antibiotic at fixed inhibitor concentration (4 mg/L): 0.25 µg/mL
[3]
  MIC of antibiotic at fixed inhibitor concentration (4 mg/L): 4 µg/mL
[4]
  MIC of antibiotic at fixed inhibitor concentration (4 mg/L): 16 µg/mL
Acinetobacter sp. J2
  MIC of antibiotic at fixed inhibitor concentration (4 mg/L): >32 µg/mL
Enterobacter cloacae P99
  MIC of antibiotic at fixed inhibitor concentration (4 mg/L): 16 µg/mL
